“And” between values parts separate entries of the source, which are not always exact repeats. Equal entries are not always repeated. Inconclusive results and toxic doses are left out. Rule as the data show it: active = T/C of 150% or more; inactive = T/C below 125%.
Tested on: L1210 leukemia ip in BDF1 mice, survival T/C
Experiment: NCI In Vivo Anticancer Drug Screen. Data for tumor model L1210 Leukemia (intraperitoneal) in B6D2F1 (BDF1) mice
Conditions: endpoint: mean survival time, higher = longer survival
How it was run: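 Transplantable tumor model; survival measured in treated vs vehicle control mice. Value = treated/control.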

[1] = dose: 100.0 mg/kg/injection, schedule: Q01DX009 (ip), vehicle: Klucel (hydroxypropylcellulose) (HPC)
[2] = dose: 200.0 mg/kg/injection, schedule: Q01DX009 (ip), vehicle: Klucel (hydroxypropylcellulose) (HPC)
[3] = dose: 100.0 mg/kg/injection, schedule: Q01DX009 (ip), vehicle: saline
[4] = dose: 100.0 mg/kg/injection, schedule: Q04DX003 (ip), vehicle: saline
[5] = dose: 200.0 mg/kg/injection, schedule: Q01DX009 (ip), vehicle: saline
[6] = dose: 50.0 mg/kg/injection, schedule: Q01DX009 (ip), vehicle: saline
[7] = dose: 25.0 mg/kg/injection, schedule: Q01DX009 (ip), vehicle: Klucel (hydroxypropylcellulose) (HPC)
[8] = dose: 100.0 mg/kg/injection, schedule: Q04DX003 (ip), vehicle: Klucel (hydroxypropylcellulose) (HPC)
[9] = dose: 100.0 mg/kg/injection, schedule: Q01DX009 (ip), vehicle: saline with Tween-80
[10] = dose: 200.0 mg/kg/injection, schedule: Q01DX009 (ip), vehicle: saline with Tween-80
[11] = dose: 200.0 mg/kg/injection, schedule: Q04DX003 (ip), vehicle: Klucel (hydroxypropylcellulose) (HPC)

Measured: T/C

CCC(CCl)NC(=O)N(N=O)C(CC)CCl (stereo not given)
inactive: dose: 16.0 mg/kg/injection, schedule: Q01DX001 (ip), vehicle: carboxymethylcellulose (CMC) 96 % of control | dose: 31.0 mg/kg/injection, schedule: Q01DX001 (ip), vehicle: carboxymethylcellulose (CMC) 102 % of control | dose: 62.0 mg/kg/injection, schedule: Q01DX001 (ip), vehicle: carboxymethylcellulose (CMC) 95 % of control | dose: 125.0 mg/kg/injection, schedule: Q01DX001 (ip), vehicle: carboxymethylcellulose (CMC) 101 % of control | dose: 250.0 mg/kg/injection, schedule: Q01DX001 (ip), vehicle: carboxymethylcellulose (CMC) 91 % of control | dose: 375.0 mg/kg/injection, schedule: Q01DX001 (ip), vehicle: carboxymethylcellulose (CMC) 91 % of control | dose: 500.0 mg/kg/injection, schedule: Q01DX001 (ip), vehicle: carboxymethylcellulose (CMC) 101 % of control | dose: 750.0 mg/kg/injection, schedule: Q01DX001 (ip), vehicle: carboxymethylcellulose (CMC) 91 % of control | dose: 1000.0 mg/kg/injection, schedule: Q01DX001 (ip), vehicle: carboxymethylcellulose (CMC) 93 % of control | dose: 1500.0 mg/kg/injection, schedule: Q01DX001 (ip), vehicle: carboxymethylcellulose (CMC) 98 % of control

CCCCCCn1c2ccccc2c2cc3cnccc3c(C)c21
inactive: dose: 37.5 mg/kg/injection, schedule: Q04DX003 (ip), vehicle: Klucel (hydroxypropylcellulose) (HPC) 97 % of control | dose: 75.0 mg/kg/injection, schedule: Q04DX003 (ip), vehicle: Klucel (hydroxypropylcellulose) (HPC) 97 % of control | dose: 150.0 mg/kg/injection, schedule: Q04DX003 (ip), vehicle: Klucel (hydroxypropylcellulose) (HPC) 102 % of control | dose: 300.0 mg/kg/injection, schedule: Q04DX003 (ip), vehicle: Klucel (hydroxypropylcellulose) (HPC) 104 % of control

O=C(NCCCCCCNC(=O)Nc1cccc(C(F)(F)F)c1)Nc1cccc(C(F)(F)F)c1
inactive: [1] 97 % of control | [2] 92 % of control | dose: 400.0 mg/kg/injection, schedule: Q01DX009 (ip), vehicle: Klucel (hydroxypropylcellulose) (HPC) 92 % of control

CN(C)C(=S)N(C)C
inactive: dose: 50.0 mg/kg/injection, schedule: Q01DX001 (ip), vehicle: carboxymethylcellulose (CMC) 104 % of control | dose: 100.0 mg/kg/injection, schedule: Q01DX001 (ip), vehicle: carboxymethylcellulose (CMC) 104 % of control | [3] 90 % of control | [4] 107 % of control | dose: 200.0 mg/kg/injection, schedule: Q01DX001 (ip), vehicle: carboxymethylcellulose (CMC) 101 % of control | [5] 96 % of control | dose: 200.0 mg/kg/injection, schedule: Q04DX003 (ip), vehicle: saline 107 % of control | dose: 400.0 mg/kg/injection, schedule: Q01DX001 (ip), vehicle: carboxymethylcellulose (CMC) 98 % of control | dose: 400.0 mg/kg/injection, schedule: Q01DX009 (ip), vehicle: saline 98 % of control | dose: 400.0 mg/kg/injection, schedule: Q04DX003 (ip), vehicle: saline 104 % of control

O=C1OC2(c3ccc(O)cc3Oc3cc(O)ccc32)C2C3CCC(O3)C12 (stereo not given)
inactive: dose: 100.0 mg/kg/injection, schedule: Q04DX002 (ip), vehicle: Klucel (hydroxypropylcellulose) (HPC) 100 % of control | dose: 200.0 mg/kg/injection, schedule: Q04DX002 (ip), vehicle: Klucel (hydroxypropylcellulose) (HPC) 118 % of control

CCC(C)C(C(=O)OC1CCN(C)CC1)c1ccccc1 (stereo not given)
inactive: dose: 25.0 mg/kg/injection, schedule: Q04DX003 (ip), vehicle: saline 102 % of control | [6] 105 % of control | dose: 50.0 mg/kg/injection, schedule: Q04DX003 (ip), vehicle: saline 96 % of control | [3] 98 % of control | [4] 97 % of control and 108 % of control

CC12C(=O)OC3CCC1CC32 (stereo not given)
inactive: dose: 75.0 mg/kg/injection, schedule: Q04DX003 (ip), vehicle: saline 97 % of control | dose: 150.0 mg/kg/injection, schedule: Q04DX003 (ip), vehicle: saline 94 % of control | dose: 300.0 mg/kg/injection, schedule: Q04DX003 (ip), vehicle: saline 94 % of control

CCO/C=C/C(=O)NC(=O)NC1CC(O)C(CO)C1 (stereo not given)
inactive: [6] 104 % of control | [3] 107 % of control | [5] 93 % of control

N#CCc1c(Cl)ccc(Cl)c1Cl
inactive: dose: 12.0 mg/kg/injection, schedule: Q01DX009 (ip), vehicle: Klucel (hydroxypropylcellulose) (HPC) 97 % of control | [7] 100 % of control | dose: 25.0 mg/kg/injection, schedule: Q04DX003 (ip), vehicle: Klucel (hydroxypropylcellulose) (HPC) 97 % of control | dose: 50.0 mg/kg/injection, schedule: Q01DX009 (ip), vehicle: Klucel (hydroxypropylcellulose) (HPC) 94 % of control | dose: 50.0 mg/kg/injection, schedule: Q04DX003 (ip), vehicle: Klucel (hydroxypropylcellulose) (HPC) 98 % of control | [8] 101 % of control and 87 % of control

O=C1c2cccc3c(Br)ccc(c23)C(=O)N1C1CCCCCCCCCCC1
inactive: [9] 97 % of control | [10] 90 % of control

Cc1ccc(-n2c(=O)c(N=Nc3ccccc3C)c(O)n(-c3ccccc3C)c2=S)cc1
inactive: dose: 37.5 mg/kg/injection, schedule: Q01DX001 (ip), vehicle: Klucel (hydroxypropylcellulose) (HPC) 95 % of control | dose: 75.0 mg/kg/injection, schedule: Q01DX001 (ip), vehicle: Klucel (hydroxypropylcellulose) (HPC) 103 % of control | dose: 150.0 mg/kg/injection, schedule: Q01DX001 (ip), vehicle: Klucel (hydroxypropylcellulose) (HPC) 100 % of control

CCN(C(=O)Nc1cccc(Cl)c1)c1ccccc1
inactive: [9] 90 % of control | dose: 100.0 mg/kg/injection, schedule: Q04DX003 (ip), vehicle: saline with Tween-80 96 % of control | [10] 90 % of control | dose: 200.0 mg/kg/injection, schedule: Q04DX003 (ip), vehicle: saline with Tween-80 97 % of control | dose: 400.0 mg/kg/injection, schedule: Q01DX009 (ip), vehicle: saline with Tween-80 86 % of control | dose: 400.0 mg/kg/injection, schedule: Q04DX003 (ip), vehicle: saline with Tween-80 97 % of control

CCOC=NC1=C(Cl)C(=O)C(N=COCC)=C(Cl)C1=O
inactive: [8] 92 % of control | [11] 94 % of control

CCN(CC)CCCC(C)Nc1ccnc(C)c1 (stereo not given)
inactive: dose: 10.0 mg/kg/injection, schedule: Q04DX003 (ip), vehicle: other 100 % of control | dose: 20.0 mg/kg/injection, schedule: Q04DX003 (ip), vehicle: other 95 % of control | dose: 40.0 mg/kg/injection, schedule: Q04DX003 (ip), vehicle: other 94 % of control

CN(C)CCC(=O)c1ccc(-c2ccccc2)cc1
inactive: [8] 97 % of control | [11] 97 % of control

Cn1cnc([N+](=O)[O-])c1S(=O)(=O)NCN1CCOCC1
inactive: [7] 117 % of control | [1] 113 % of control | [2] 113 % of control

O=C=Nc1cccc2c(N=C=O)cccc12
inactive: [9] 91 % of control

C#CC(OC(=O)N(C)C)(c1ccccc1)c1ccc(F)cc1 (stereo not given)
inactive: dose: 5.0 mg/kg/injection, schedule: Q01DX001 (ip), vehicle: saline 108 % of control | dose: 10.0 mg/kg/injection, schedule: Q01DX001 (ip), vehicle: saline 105 % of control | dose: 20.0 mg/kg/injection, schedule: Q01DX001 (ip), vehicle: saline 109 % of control | dose: 40.0 mg/kg/injection, schedule: Q01DX001 (ip), vehicle: saline 117 % of control

CCNCCC[P+](c1ccccc1)(c1ccccc1)c1ccccc1
inactive: dose: 25.0 mg/kg/injection, schedule: Q04DX002 (ip), vehicle: saline 98 % of control | dose: 50.0 mg/kg/injection, schedule: Q04DX002 (ip), vehicle: saline 105 % of control | dose: 100.0 mg/kg/injection, schedule: Q04DX002 (ip), vehicle: saline 98 % of control and 91 % of control
